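How tested: cells in 96-well plates exposed to compound for 48 hours at five concentrations. The concentration for 50% growth inhibition is given as GI50.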 The source made the active and inactive calls. No stated cut-off is given here; in the data, active = GI50 up to about 1.1 µM and inactive = higher.
Experiments:
Assay in all cases: NCI-60 cell line screen, 48 h
[1] = tested on: A549
[2] = tested on: ACHN
[3] = tested on: HCC 2998
[4] = tested on: HL-60
[5] = tested on: HOP-92
[6] = tested on: K562
[7] = tested on: MCF7
[8] = tested on: MOLT-4
[9] = tested on: NCI/ADR-RES
[10] = tested on: OVCAR-3
[11] = tested on: OVCAR-5
[12] = tested on: OVCAR-8
[13] = tested on: PC-3
[14] = tested on: RPMI-8226
[15] = tested on: SK-OV-3
[16] = tested on: SNB-19
[17] = tested on: SR
[18] = tested on: TK-10
[19] = tested on: UACC-257
[20] = tested on: RXF 393

SMILES | GI50 [1] | GI50 [2] | GI50 [3] | GI50 [4] | GI50 [5] | GI50 [6] | GI50 [7] | GI50 [8] | GI50 [9] | GI50 [10] | GI50 [11] | GI50 [12] | GI50 [13] | GI50 [14] | GI50 [15] | GI50 [16] | GI50 [17] | GI50 [18] | GI50 [19] | GI50 [20]
COc1ccc(C(c2ccc(OC)cc2)N2C(=O)CCC2C(=O)O)cc1 (centres undefined) | > 100 µM (inactive) | > 100 µM (inactive) | > 100 µM (inactive) | > 100 µM (inactive) | > 100 µM (inactive) | > 100 µM (inactive) | > 100 µM (inactive) | > 100 µM (inactive) | > 100 µM (inactive) | > 100 µM (inactive) | > 100 µM (inactive) | > 100 µM (inactive) | > 100 µM (inactive) | > 100 µM (inactive) | > 100 µM (inactive) | > 100 µM (inactive) | > 100 µM (inactive) | > 100 µM (inactive) | > 100 µM (inactive) | –
COc1cc2cc(C(=O)N3CC(CCl)c4c3cc(N)c3ccccc43)[nH]c2c(OC)c1OC (centres undefined) | < 0.01 µM (active) | < 0.01 µM (active) | < 0.01 µM (active) | – | < 0.01 µM (active) | < 0.01 µM (active) | < 0.01 µM (active) | < 0.01 µM (active) | < 0.01 µM (active) | < 0.01 µM (active) | < 0.01 µM (active) | < 0.01 µM (active) | < 0.01 µM (active) | < 0.01 µM (active) | < 0.01 µM (active) | < 0.01 µM (active) | < 0.01 µM (active) | < 0.01 µM (active) | < 0.01 µM (active) | < 0.01 µM (active)
COc1cc(S(=O)(=O)Nc2ccc(-c3csc(/N=C\c4ccccc4O)n3)cc2)ccc1Cl | 63.1 µM (inactive) | 62.2 µM (inactive) | – | 24.4 µM (inactive) | > 100 µM (inactive) | 28.2 µM (inactive) | 22.6 µM (inactive) | 15.8 µM (inactive) | > 100 µM (inactive) | 28.5 µM (inactive) | > 100 µM (inactive) | > 100 µM (inactive) | 39.4 µM (inactive) | 29.6 µM (inactive) | > 100 µM (inactive) | 39.3 µM (inactive) | 31.6 µM (inactive) | – | – | 35.6 µM (inactive)
COC(=O)c1csc(-c2nc(CCNC(=O)OC(C)(C)C)sc2Br)n1 | > 100 µM (inactive) | > 100 µM (inactive) | > 100 µM (inactive) | > 100 µM (inactive) | – | > 100 µM (inactive) | > 100 µM (inactive) | > 100 µM (inactive) | > 100 µM (inactive) | > 100 µM (inactive) | > 100 µM (inactive) | > 100 µM (inactive) | 55.7 µM (inactive) | 99.3 µM (inactive) | > 100 µM (inactive) | > 100 µM (inactive) | 81.8 µM (inactive) | > 100 µM (inactive) | > 100 µM (inactive) | > 100 µM (inactive)
Fc1cccc(C2SCc3nc4cc5ccccc5cc4n32)c1 (centres undefined) | > 100 µM (inactive) | > 100 µM (inactive) | > 100 µM (inactive) | – | 21 µM (inactive) | > 100 µM (inactive) | > 100 µM (inactive) | > 100 µM (inactive) | > 100 µM (inactive) | > 100 µM (inactive) | > 100 µM (inactive) | > 100 µM (inactive) | > 100 µM (inactive) | > 100 µM (inactive) | > 100 µM (inactive) | > 100 µM (inactive) | > 100 µM (inactive) | > 100 µM (inactive) | > 100 µM (inactive) | > 100 µM (inactive)
O=C1OC(C(O)CO)C(C(O)CO)OC1=O (centres undefined) | > 10 µM (inactive) | > 10 µM (inactive) | > 10 µM (inactive) | > 10 µM (inactive) | – | > 10 µM (inactive) | > 10 µM (inactive) | > 10 µM (inactive) | > 10 µM (inactive) | > 10 µM (inactive) | > 10 µM (inactive) | > 10 µM (inactive) | > 10 µM (inactive) | > 10 µM (inactive) | – | > 10 µM (inactive) | > 10 µM (inactive) | > 10 µM (inactive) | > 10 µM (inactive) | > 10 µM (inactive)
C=C(C)CCC(=O)[C@](C)(O)[C@H]1[C@H](O)C[C@@]2(C)[C@@H]3CCc4c(cc(OC5OC(CO)C(O)C(O)C5O)c(O)c4C)C3(C)C(=O)C[C@]12C (some centres undefined) | > 100 µM (inactive) | > 100 µM (inactive) | > 100 µM (inactive) | – | > 100 µM (inactive) | > 100 µM (inactive) | > 100 µM (inactive) | > 100 µM (inactive) | > 100 µM (inactive) | > 100 µM (inactive) | > 100 µM (inactive) | > 100 µM (inactive) | > 100 µM (inactive) | – | > 100 µM (inactive) | > 100 µM (inactive) | > 100 µM (inactive) | > 100 µM (inactive) | > 100 µM (inactive) | > 100 µM (inactive)
O=C(c1ccccc1)N1C(=S)N(c2ccc([N+](=O)[O-])cc2)C(=N/c2ccccc2)/C1=N\c1ccccc1 | 41.9 µM (inactive) | 52 µM (inactive) | > 100 µM (inactive) | – | > 100 µM (inactive) | 30.1 µM (inactive) | > 100 µM (inactive) | 19.5 µM (inactive) | > 100 µM (inactive) | > 100 µM (inactive) | > 100 µM (inactive) | 65.5 µM (inactive) | 40.6 µM (inactive) | > 100 µM (inactive) | > 100 µM (inactive) | > 100 µM (inactive) | 20.6 µM (inactive) | > 100 µM (inactive) | > 100 µM (inactive) | > 100 µM (inactive)
Cn1c(S)nnc1-c1csc(-c2ccc(Cl)cc2)n1 | 32.6 µM (inactive) | 18.7 µM (inactive) | > 100 µM (inactive) | – | 12 µM (inactive) | > 100 µM (inactive) | 37.2 µM (inactive) | 55.8 µM (inactive) | 25.2 µM (inactive) | 19.1 µM (inactive) | 34.4 µM (inactive) | 21.8 µM (inactive) | 35.7 µM (inactive) | – | 17.6 µM (inactive) | 17.5 µM (inactive) | > 100 µM (inactive) | 20.4 µM (inactive) | > 100 µM (inactive) | 19 µM (inactive)
CC1(C)C(O)C[C@]23CCC[C@](C)(C[C@@H](O)C12)C3 (some centres undefined) | 38.2 µM (inactive) | > 100 µM (inactive) | – | > 100 µM (inactive) | > 100 µM (inactive) | > 100 µM (inactive) | > 100 µM (inactive) | > 100 µM (inactive) | > 100 µM (inactive) | > 100 µM (inactive) | > 100 µM (inactive) | > 100 µM (inactive) | > 100 µM (inactive) | > 100 µM (inactive) | > 100 µM (inactive) | > 100 µM (inactive) | > 100 µM (inactive) | > 100 µM (inactive) | > 100 µM (inactive) | –
C/C=C\C(CC(=O)O)CC(=O)NCCC1CN(S(=O)(=O)C(F)(F)F)c2ccccc21 (centres undefined) | > 100 µM (inactive) | > 100 µM (inactive) | > 100 µM (inactive) | – | > 100 µM (inactive) | > 100 µM (inactive) | > 100 µM (inactive) | > 100 µM (inactive) | > 100 µM (inactive) | > 100 µM (inactive) | > 100 µM (inactive) | > 100 µM (inactive) | > 100 µM (inactive) | > 100 µM (inactive) | > 100 µM (inactive) | > 100 µM (inactive) | > 100 µM (inactive) | – | > 100 µM (inactive) | > 100 µM (inactive)
COc1cccc(NC(=O)CC(=O)Nc2cccc(OC)c2)c1 | > 100 µM (inactive) | > 100 µM (inactive) | > 100 µM (inactive) | > 100 µM (inactive) | > 100 µM (inactive) | > 100 µM (inactive) | > 100 µM (inactive) | > 100 µM (inactive) | > 100 µM (inactive) | > 100 µM (inactive) | – | > 100 µM (inactive) | > 100 µM (inactive) | > 100 µM (inactive) | > 100 µM (inactive) | > 100 µM (inactive) | > 100 µM (inactive) | > 100 µM (inactive) | > 100 µM (inactive) | –
COC(=O)[C@]12CSC[C@H]1C[C@H](c1ccc(N(C)C)cc1)N2 | > 100 µM (inactive) | > 100 µM (inactive) | > 100 µM (inactive) | – | > 100 µM (inactive) | > 100 µM (inactive) | > 100 µM (inactive) | – | > 100 µM (inactive) | > 100 µM (inactive) | > 100 µM (inactive) | > 100 µM (inactive) | > 100 µM (inactive) | > 31.6 µM (inactive) | > 100 µM (inactive) | > 100 µM (inactive) | > 100 µM (inactive) | > 100 µM (inactive) | > 100 µM (inactive) | > 100 µM (inactive)
CN(C)S(=O)(=O)c1nc(Cl)c2nc[nH]c2n1 | > 100 µM (inactive) | > 100 µM (inactive) | > 100 µM (inactive) | 98.6 µM (inactive) | – | > 100 µM (inactive) | > 100 µM (inactive) | > 100 µM (inactive) | > 100 µM (inactive) | > 100 µM (inactive) | > 100 µM (inactive) | > 100 µM (inactive) | > 100 µM (inactive) | > 100 µM (inactive) | > 100 µM (inactive) | > 100 µM (inactive) | > 100 µM (inactive) | > 100 µM (inactive) | > 100 µM (inactive) | 55.7 µM (inactive)
CCCC(=O)OC1CC(n2cc(F)c(=O)[nH]c2=O)OC1CO (centres undefined) | 0.0538 µM (active) | 0.0506 µM (active) | 0.0202 µM (active) | 0.646 µM (active) | – | 1.74 µM (inactive) | 0.036 µM (active) | > 6.89 µM (inactive) | > 2.55 µM (inactive) | 3.69 µM (inactive) | > 10 µM (inactive) | 0.171 µM (active) | 1.48 µM (inactive) | – | 4.08 µM (inactive) | – | 0.0493 µM (active) | > 2.67 µM (inactive) | > 4.49 µM (inactive) | > 5.79 µM (inactive)

— ChEMBL document CHEMBL1201862, “PubChem BioAssay data set” (2004)
